These compounds were tested against T1, P2X7 receptor (Homo sapiens, UniProt Q99572) (assay: P2X7 calcium mobilization assay, high throughput, antagonist activity (Example 4A)). Conditions: 50% decrease in the fluorescence response of cells exposed to 80 μM of 2′(3′)-O-(4-benzoyl-benzoyl)adenosine 5′-triphosphate; determined as in Example 4A; read-out: IC50.
T1 construct: host or cells: SH-SY5Y
T1 sequence (Q99572 1-595): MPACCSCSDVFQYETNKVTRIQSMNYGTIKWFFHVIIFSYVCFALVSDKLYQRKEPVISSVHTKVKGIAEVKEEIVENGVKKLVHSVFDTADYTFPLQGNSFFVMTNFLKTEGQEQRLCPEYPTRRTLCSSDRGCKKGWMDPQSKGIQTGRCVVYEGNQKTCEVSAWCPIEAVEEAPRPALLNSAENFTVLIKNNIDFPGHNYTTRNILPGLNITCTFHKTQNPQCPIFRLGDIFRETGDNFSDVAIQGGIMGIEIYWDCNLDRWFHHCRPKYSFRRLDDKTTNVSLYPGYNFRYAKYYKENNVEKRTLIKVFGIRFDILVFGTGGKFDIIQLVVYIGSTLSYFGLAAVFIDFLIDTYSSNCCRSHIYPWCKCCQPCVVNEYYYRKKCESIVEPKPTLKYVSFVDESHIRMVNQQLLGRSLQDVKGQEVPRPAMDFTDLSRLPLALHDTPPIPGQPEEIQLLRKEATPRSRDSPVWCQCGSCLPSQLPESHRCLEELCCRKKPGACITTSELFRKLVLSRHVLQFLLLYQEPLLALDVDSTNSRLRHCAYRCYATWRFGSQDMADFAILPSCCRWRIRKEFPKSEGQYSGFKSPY
Type: cell-based
Method in brief: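 Antagonism was measured as calcium fluorescence (FLIPR Tetra) in cells seeded one day earlier at 100,000/well, loaded with dye for 1 h and exposed to compound for 1 h at room temperature before agonist. Peak RFU, minus the no-agonist background, was referenced to the mean of the agonist wells.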

Structure (SMILES) | IC50 [nM]
O=C(Cc1cn2c(C(=O)NCC3(N4CCOCC4)CCCCC3)cccc2n1)NC1(CO)CCCC1 [Compound 988, 2-(2-{[1-(hydroxymethyl)cyclopentyl]amino}-2-oxoethyl)-N-[(1-morpholin-4-ylcyclohexyl)methyl] imidazo[1,2-a] pyridine-5-carboxamide] | < 2000
O=C(O)CC(Cc1ccccc1)c1cn2c(C(=O)NCC34CC5CC(CC(C5)C3)C4)cccc2n1 (stereo not drawn) [Compound 994, 3-{5-[(adamantan-1-ylmethyl)carbamoyl]imidazo[1,2-a]pyridin-2-yl}-4-phenylbutanoic acid] | < 2000
CC(C)(C)[Si](C)(C)OCCCn1ccc(NCc2cn3c(C(=O)NCC45CC6CC(CC(C6)C4)C5)cccc3n2)n1 [Compound 999, N-(adamantan-1-ylmethyl)-2-({[1-(3-{[tert-butyl (dimethyl)silyl]oxy}propyl)-1H-pyrazol-3-yl]amino}methyl) imidazo[1,2-a] pyridine-5-carboxamide] | < 2000
O=C(NCC12CC3CC(CC(C3)C1)C2)c1cccc2nc(CNc3ccn(CCCO)n3)cn12 [Compound 1000, N-(adamantan-1-ylmethyl)-2-({[1-(3-hydroxypropyl)-1H-pyrazol-3-yl]amino}methyl) imidazo [1,2-a]pyridine-5-carboxamide] | < 2000
CCOC(=O)C(CC1CC1)c1cn2c(C(=O)NCC34CC5CC(CC(C5)C3)C4)cccc2n1 (stereo not drawn) [Compound 1001, ethyl 2-{5-[(adamantan-1-ylmethyl)carbamoyl]imidazo[1,2-a]pyridin-2-yl}-3-cyclopropylpropanoate] | < 2000
O=C(NCC12CC3CC(CC(C3)C1)C2)c1cccc2nc(C(CC3CC3)C(=O)O)cn12 (stereo not drawn) [Compound 1002, 2-{5-[(adamantan-1-ylmethyl)carbamoyl]imidazo[1,2-a]pyridin-2-yl}-3-cyclopropylpropanoic acid] | < 2000
O=C(NCC12CC3CC(CC(C3)C1)C2)c1cccc2nc(CC(Cc3ccccc3)C(=O)O)cn12 (stereo not drawn) [Compound 1003, 3-{5-[(adamantan-1-ylmethyl)carbamoyl]imidazo[1,2-a]pyridin-2-yl}-2-benzylpropanoic acid] | < 2000
CC(C)CC(CNC(=O)c1cccc2nc(CC(Cc3ccccc3)C(=O)O)cn12)c1ccccc1 (stereo not drawn) [Compound 1004, 2-benzyl-3-{5-[(4-methyl-2-phenylpentyl)carbamoyl]imidazo[1,2-a]pyridin-2-yl} propanoic acid] | < 2000
Cc1ccc(C(CNC(=O)c2cccc3nc(CC(Cc4ccccc4)C(=O)O)cn23)CC(C)C)cc1 (stereo not drawn) [Compound 1005, 2-benzyl-3-(5-{[4-methyl-2-(4-methylphenyl)pentyl]carbamoyl}imidazo[1,2-a]pyridin-2-yl)propanoic acid] | < 2000
CCCC(CNC(=O)c1cccc2nc(CC(Cc3ccccc3)C(=O)O)cn12)c1ccc(Cl)cc1 (stereo not drawn) [Compound 1006, 2-benzyl-3-(5-{[2-(4-chlorophenyl)pentyl]carbamoyl}imidazo[1,2-a]pyridin-2-yl) propanoic acid] | < 2000
CC(C)CC(CNC(=O)c1cccc2nc(CC(Cc3ccccc3)C(=O)O)cn12)c1ccc(Cl)cc1 (stereo not drawn) [Compound 1007, 2-benzyl-3-(5-{[2-(4-chlorophenyl)-4-methylpentyl]carbamoyl}imidazo[1,2-a]pyridin-2-yl) propanoic acid] | < 2000
CC(C)CC(CNC(=O)c1cccc2nc(CC(Cc3ccccc3)C(=O)O)cn12)c1ccc(C(F)(F)F)cc1 (stereo not drawn) [Compound 1008, 2-benzyl-3-[5-({4-methyl-2-[4-(trifluoromethyl)phenyl]pentyl}carbamoyl)imidazo[1,2-a]pyridin-2-yl] propanoic acid] | < 2000
CC1(C)C2CC[C@@H](CNC(=O)c3cccc4nc(C(F)(F)F)cn34)C1C2 (stereo partly drawn) [Compound 1016, N-{[(2R)-6,6-dimethylbicyclo [3.1.1]hept-2-yl]methyl}-2-(trifluoromethyl) imidazo [1,2-a]pyridine-5-carboxamide] | < 2000

Results, then the compound that gave them:

IC50 [nM] | Structure (SMILES)
< 2000 | COc1ccc(C2(CNC(=O)c3cccc4nc(CCC(=O)O)cn34)CCCCC2)cc1 [Compound 998, 3-[5-({[1-(4-methoxyphenyl)cyclohexyl]methyl}carbamoyl)imidazo[1,2-a]pyridin-2-yl]propanoic acid]
< 2000 | CCOC(=O)C(CC1CC1)c1cn2c(C(=O)NCC3(c4ccc(Cl)cc4)CCCCC3)cccc2n1 (stereo not drawn) [Compound 1009, ethyl 2-[5-({[1-(4-chlorophenyl)cyclohexyl]methyl}carbamoyl)imidazo[1,2-a]pyridin-2-yl]-3-cyclopropylpropanoate]
< 2000 | O=C(NCC1(c2ccc(Cl)cc2)CCCCC1)c1cccc2nc(C(CC3CC3)C(=O)O)cn12 (stereo not drawn) [Compound 1010, 2-[5-({[1-(4-chlorophenyl)cyclohexyl]methyl}carbamoyl)imidazo[1,2-a]pyridin-2-yl]-3-cyclopropylpropanoic acid]
< 2000 | Cc1ccc(C2(CNC(=O)c3cccc4nc(CC(Cc5ccccc5)C(=O)O)cn34)CCCCC2)cc1 (stereo not drawn) [Compound 1011, 2-benzyl-3-[5-({[1-(4-methylphenyl)cyclohexyl]methyl}carbamoyl)imidazo[1,2-a]pyridin-2-yl] propanoic acid]
< 2000 | O=C(NCC1(c2ccc(F)cc2)CCCCC1)c1cccc2nc(CC(Cc3ccccc3)C(=O)O)cn12 (stereo not drawn) [Compound 1012, 2-benzyl-3-[5-({[1-(4-fluorophenyl)cyclohexyl]methyl}carbamoyl)imidazo[1,2-a]pyridin-2-yl]propanoic acid]
< 2000 | O=C(NCC1(c2ccc(Cl)cc2)CCCCC1)c1cccc2nc(CC(Cc3ccccc3)C(=O)O)cn12 (stereo not drawn) [Compound 1013, 2-benzyl-3-[5-({[1-(4-chlorophenyl)cyclohexyl]methyl}carbamoyl)imidazo[1,2-a]pyridin-2-yl] propanoic acid]
< 2000 | COc1ccc(C2(CNC(=O)c3cccc4nc(CC(Cc5ccccc5)C(=O)O)cn34)CCCCC2)cc1 (stereo not drawn) [Compound 1014, 2-benzyl-3-[5-({[1-(4-methoxyphenyl)cyclohexyl]methyl}carbamoyl)imidazo[1,2-a]pyridin-2-yl]propanoic acid]

Same assay, conditions: P2X7 calcium mobilization, Example 4A; 50% decrease in the fluorescence response of cells exposed to 80 μM of (2′(3′)-O-(4-benzoyl-benzoyl)adenosine 5′-triphosephate); read-out: IC50

Structure (SMILES) | IC50 [nM]
CC(=O)c1cn2c(C(=O)NCC(CC(C)C)c3ccc(Cl)cc3)cccc2n1 (stereo not drawn) [Compound 1032, 2-acetyl-N-[2-(4-chlorophenyl)-4-methylpentyl] imidazo[1,2-a] pyridine-5-carboxamlde] | < 2000
CC(C)CC(CNC(=O)c1cccc2nc(C(C)N3CCC3)cn12)c1ccc(Cl)cc1 (stereo not drawn) [Compound 1033, 2-(1-azetidin-1-ylethyl)-N-[2-(4-chlorophenyl)-4-methylpentyl] imidazo[1,2-a] pyridine-5-carboxamide] | < 2000
CC(C)CC(CNC(=O)c1cccc2nc(CN3CCC3)cn12)c1ccc(Cl)cc1 (stereo not drawn) [Compound 1034, 2-(azetidin-1-ylmethyl)-N-[2-(4-chlorophenyl)-4-methylpentyl] imidazo[1,2-a] pyridine-5-carboxamide] | < 2000
CC(C)CC(CNC(=O)c1cccc2nc(C(C)N3CCCC3)cn12)c1ccc(Cl)cc1 (stereo not drawn) [Compound 1035, N-[2-(4-chlorophenyl)-4-methylpentyl]-2-(1-pyrrolidin-1-ylethyl) imidazo[1,2-a]pyridine-5-carboxamide] | < 2000
CC(C)CC(CNC(=O)c1cccc2nc(CN3CCCC3)cn12)c1ccc(Cl)cc1 (stereo not drawn) [Compound 1036, N-[2-(4-chlorophenyl)-4-methylpentyl]-2-(pyrrolidin-1-ylmethyl) imidazo[1,2-a]pyridine-5-carboxamide] | < 2000

Next, values leading:

IC50 [nM] | Structure (SMILES)
< 2000 | O=C(NCC1(c2ccc(C(F)(F)F)cc2)CCCCC1)c1cccc2nc(C(F)(F)F)cn12 [Compound 1018, 2-(trifluoromethyl)-N-({1-[4-(trifluoromethyl)phenyl]cyclohexyl}methyl) imidazo [1,2-a]pyridine-5-carboxamide]
< 2000 | O=C(NCC1(c2ccc(Cl)cc2)CCCCC1)c1cccc2nc(C(F)(F)F)cn12 [Compound 1020, N-{[1-(4-chlorophenyl)cyclohexyl]methyl}-2-(trifluoromethyl) imidazo [1,2-a]pyridine-5-carboxamide]
< 2000 | CC(C)CC(CNC(=O)c1cccc2nc(C(F)(F)F)cn12)c1ccc(Cl)cc1 (stereo not drawn) [Compound 1021, N-[2-(4-chlorophenyl)-4-methylpentyl]-2-(trifluoromethyl) imidazo [1,2-a]pyridine-5-carboxamide]
< 2000 | CC(C)CC(CNC(=O)c1cccc2nc(C(F)(F)F)cn12)c1ccc(C(F)(F)F)cc1 (stereo not drawn) [Compound 1025, N-{4-methyl-2-[4-(trifluoromethyl)phenyl]pentyl}-2-(trifluoromethyl) imidazo [1,2-a]pyridine-5-carboxamide]
< 2000 | COc1ccc(C2(CNC(=O)c3cccc4nc(C(F)(F)F)cn34)CCCCC2)cc1 [Compound 1026, N-{[1-(4-methoxyphenyl)cyclohexyl]methyl}-2-(trifluoromethyl) imidazo [1,2-a]pyridine-5-carboxamide]
